# Values of other authors, collected in patent publication US20260355312A1, “COMBINED THERAPY DRUG COMPRISING ANTI-HER2 BISPECIFIC ANTIBODY AND USE THEREOF” (JIANGSU ALPHAMAB BIOPHARMACEUTICALS CO., LTD., priority 2023, published 2026).
# System: tumor
smiles,measurement,value
"CC(=O)O[C@@]12CO[C@@H]1C[C@H](O)[C@@]1(C)C(=O)[C@H](O)C3=C(C)[C@@H](OC(=O)[C@H](O)[C@@H](NC(=O)OC(C)(C)C)c4ccccc4)C[C@@](O)([C@@H](OC(=O)c4ccccc4)[C@H]21)C3(C)C [Docetaxel, docetaxel]",antitumor activity compared to paclitaxel,stronger antitumor activity than paclitaxel
